How the values were obtained:
Type in all cases: physicochemical
[1] = Solubility at various pH in 0.9% Sodium Chloride (HCl addition, about 24 hours equilibration, 0.2 μm filtration); design: key to appearance: Conforms = clear and essentially free of visible particles; details: 0.9% Saline
Method: (§1) Experiments were performed to assess the solubility of SDC-TRAP-0063 Sodium as a function of varying pH.

[2] = pH of reconstituted solution and dosing solutions
Method: The reconstituted solution of SDC-TRAP-0063 Sodium has a pH of about 10.0. This solution is diluted to the target dose in 5% Mannitol, USP. The pH of the infusion solution depends on the concentration of SDC-TRAP-0063 Sodium in the diluted infusion solution. Across the dose ranges employed in the clinical study protocol, the volume of the diluted infusion solution administered will range from 50 to 500 mL, and the pH will range from 8.1 to 9.6. In order to reduce the potential risks of injection site pain and/or damage to the venous endothelium during IV administration, a central venous access line is used for administration of the diluted SDC-TRAP-0063 Sodium.
A new, more robust and patient-friendly formulation of dosing solution was developed. During this development, it was established that the pH of the dosing solution is driven by the concentration of SDC-TRAP-0063 Sodium and increasing the SDC-TRAP-0063 Sodium concentration allows better control of the solubility and pH of dosing solutions.
It is believed that a common ion effect is decreasing the solubility of SDC-TRAP-0063 Sodium in 0.9% Sodium Chloride solution.

[3] = Solubility in water
Description: As discussed above, the solubility of SDC-TRAP-0063 Sodium is driven primarily by pH. […] Reducing the pH allows the equilibrium to shift more to the lactone form and adversely impacts solubility. Dilute solutions of SDC-TRAP-0063 Sodium result in a lower pH with an increased risk of precipitation. The solubility of SDC-TRAP-0063 Sodium has also been seen to be adversely impacted by the use of 0.9% Sodium Chloride as a diluent. A common ion effect is the likely source of this observation.

[4] = Solubility at various pH in 5% Mannitol (HCl addition, about 24 hours equilibration, 0.2 μm filtration); design: key to appearance: Conforms = clear and essentially free of visible particles
Method: as §1

[5] = Particulate formation in dosing solutions using 0.9% Sodium Chloride, 5% Mannitol and 5% Dextrose adjusted to the low USP pH limits, with rocking (appearance, pH, HPLC recovery); design: key to appearance: Conforms = clear and essentially free of visible particles
Method: A study was conducted with 0.6 mg/mL and 2.4 mg/mL solutions of SDC-TRAP-0063 Sodium using one of three diluents; 0.9% Sodium Chloride as a positive control, and 5% Dextrose and 5% Mannitol as potential new diluents (Table 2). Each diluent was prepared at the lower pH limit of USP to test a worst-case scenario for solubility (the starting pH was 4.5 for 0.9% Sodium Chloride and 5% Mannitol and 3.2 for 5% Dextrose). The SDC-TRAP-0063 Sodium dosing solutions were prepared in glass vials and then placed on a rocker. […]

[6] = In-use stability study of dosing solutions in 5% Mannitol (mixing container, syringe pump, administration set)
Method: In this study, SDC-TRAP-0063 sodium was dissolved in 5% Mannitol within the concentration range of 3-12 mg/mL. The stabilities of the SDC-TRAP-0063/Mannitol solution in an infusion container and during administration via a syringe pump were studied.
Dosing solutions of 3, 6 and 12 mg/mL of SDC-TRAP-0063 Na were prepared in 250 mL Intravia mixing containers. Pre-determined numbers of vials of SDC-TRAP-0063 Na were re-constituted with WFI and SDC-TRAP-0063 Na was transferred into mixing containers containing 5% mannitol. Each preparation was performed in duplicate.
An in-use test was performed to simulate the clinical infusion process. Freshly prepared dosing solutions were withdrawn from the Intravia containers with the specified syringe size and volume, plus an additional 2 mL for flushing the administration set. The volume of the IV administration set is O.7 mL; the 2 mL flush volume was selected according to standard pharmacy practice. After the administration set was flushed, the syringe was placed on a syringe pump and held at room temperature for 4 hours followed by a 2-hour infusion process. For the 15 mg dose level the simulation infusion was for 1 hour, because the minimal infusion rate specified by clinic was not less than 5 mL/hour. Samples were collected from the mixing containers at T0 and T2 hours and from the administration sets at T0 and from the bulk container at the end of infusion, at T5 hours for 15 mg sample and at T6 hours for all other samples, as outlined in Table 8.
A flexible bracketing design, intended to cover possible syringe volumes from 10 to 60 mL of nominal volumes, possible variation of the syringe fill volumes from 10 to 75% of the nominal syringe volume and concentration ranges of the dosing solutions from 3 to 12 mg/ml was executed in this study. The maximum fill volume for each syringe is limited to 75% of the nominal volume.

[7] = 0 molar percent HCl added, pH 9.9
[8] = 8.1 molar percent HCl added, pH 9.6
[9] = 14.4 molar percent HCl added, pH 9.1
[10] = 33.1 molar percent HCl added, pH 8.7
[11] = 35.5 molar percent HCl added, pH 8.7

Question: Which “SDC-TRAP-0063 Sodium concentration in the solution” value (“SDC-TRAP-0063 Sodium concentration” for short) [1, 7] does the source give for `CCc1c2c(nc3ccc(OC(=O)N4CCC(CCn5ccc6cc(-n7c(O)nnc7-c7cc(C(C)C)c(O)cc7O)ccc65)CC4)cc13)-c1cc([C@@](O)(CC)C(=O)[O-])c(CO)c(=O)n1C2.[Na+]` [SDC-TRAP-0063 Sodium, Sodium (S)-2-(2-((4-(2-(5-(3-(2,4-dihydroxy-5-isopropylphenyl)-5-hydroxy-4H-1,2,4-triazol-4-yl)-1H-indol-1-yl)ethyl)piperidine-1-carbonyl)oxy)-12-ethyl-8-(hydroxymethyl)-9-oxo-9,11-dihydroindolizino[1,2-b]quinolin-7-yl)-2-hydroxybutanoate] here?
Answer: 22.9 mg/mL

Question: And the appearance [1, 7]?
Answer: Conforms^1

Question: And the “SDC-TRAP-0063 Sodium concentration” value [1, 8]?
Answer: 23.4 mg/mL

Question: What about the appearance [1, 8] of the same molecule?
Answer: Slightly hazy solution

Question: And the “SDC-TRAP-0063 Sodium concentration” value [1, 9]?
Answer: 21.4 mg/mL

Question: And the appearance [1, 9]?
Answer: Slightly hazy solution

Question: And the “SDC-TRAP-0063 Sodium concentration” value [1, 10]?
Answer: 18.6 mg/mL

Question: What about the appearance [1, 10] of the same molecule?
Answer: Slightly hazy solution

Question: And the appearance ([1]; 33.1 molar percent HCl added, pH 8.7, after 1 hour)?
Answer: gelation after 1 hour

Question: What about the “SDC-TRAP-0063 Sodium concentration” value [1, 11] of the same molecule?
Answer: 13.7 mg/mL

Question: What about the appearance [1, 11] of the same molecule?
Answer: Slightly hazy solution

Question: What about the appearance ([1]; 35.5 molar percent HCl added, pH 8.7, after 1 hour) of the same molecule?
Answer: gelation after 1 hour

Question: And the “pH observed for dosing solutions” value ([2]; 0.9% Sodium chloride)?
Answer: 8.6-8.7

Question: What about the “pH range observed for dosing solutions” value ([2]; 5% Mannitol) of the same molecule?
Answer: 9.4-10.2

Question: What about the “observed pH for all dosing solutions” value ([2]; 5% Mannitol, concentrations from 3-12 mg/mL) of the same molecule?
Answer: ≥ 9.4

Question: What about the solubility [3] of the same molecule?
Answer: > 52.5 mg/mL

Question: What about the appearance ([4]; 0 molar percent HCl added, pH 10.1) of the same molecule?
Answer: Conforms^2

Question: And the “SDC-TRAP-0063 Sodium concentration” value ([4]; 0 molar percent HCl added, pH 10.1, after 24 hours of rocking, starting 23.6 mg/mL)?
Answer: >23.6 (after mg/mL

Question: What about the “SDC-TRAP-0063 Sodium concentration” value ([4]; 10.5 molar percent HCl added, pH 9.9) of the same molecule?
Answer: >23.5 mg/mL

Question: What about the “SDC-TRAP-0063 Sodium concentration” value ([4]; 18.2 molar percent HCl added, pH 9.9) of the same molecule?
Answer: >23.3 mg/mL

Question: And the “SDC-TRAP-0063 Sodium concentration” value ([4]; 33.1 molar percent HCl added, pH 9.1)?
Answer: 20.2 mg/mL

Question: And the “SDC-TRAP-0063 Sodium concentration” value ([4]; 35.5 molar percent HCl added, pH 9.4)?
Answer: 20.9 mg/mL

Question: What about the precipitation ([4]; maximum concentration of 12 mg/mL) of the same molecule?
Answer: does not result in precipitation

Question: And the pH ([5]; 0.9% Sodium Chloride, pH 4.5, 0.6 mg/mL)?
Answer: 8.7

Question: And the appearance ([5]; 0.9% Sodium Chloride, pH 4.5, 0.6 mg/mL, 0 hours)?
Answer: Conforms^1

Question: What about the appearance ([5]; 0.9% Sodium Chloride, pH 4.5, 0.6 mg/mL, 6 hours) of the same molecule?
Answer: Precipitate

Question: And the appearance ([5]; 0.9% Sodium Chloride, pH 4.5, 0.6 mg/mL, 24 hours)?
Answer: Precipitate

Question: What about the pH ([5]; 0.9% Sodium Chloride, pH 4.5, 2.4 mg/mL) of the same molecule?
Answer: 9.4

Question: And the appearance ([5]; 0.9% Sodium Chloride, pH 4.5, 2.4 mg/mL, 0 hours)?
Answer: Conforms^1

Question: And the appearance ([5]; 0.9% Sodium Chloride, pH 4.5, 2.4 mg/mL, 6 hours)?
Answer: Precipitate

Question: And the appearance ([5]; 0.9% Sodium Chloride, pH 4.5, 2.4 mg/mL, 24 hours)?
Answer: Precipitate

Question: What about the pH ([5]; 5% Dextrose, pH 3.2, 0.6 mg/mL) of the same molecule?
Answer: 7.5

Question: And the appearance ([5]; 5% Dextrose, pH 3.2, 0.6 mg/mL, 0 hours)?
Answer: Conforms^1

Question: What about the appearance ([5]; 5% Dextrose, pH 3.2, 0.6 mg/mL, 6 hours) of the same molecule?
Answer: Precipitate

Question: What about the appearance ([5]; 5% Dextrose, pH 3.2, 0.6 mg/mL, 24 hours) of the same molecule?
Answer: Precipitate

Question: And the pH ([5]; 5% Dextrose, pH 3.2, 2.4 mg/mL)?
Answer: 9.1

Question: What about the appearance ([5]; 5% Dextrose, pH 3.2, 2.4 mg/mL, 0 hours) of the same molecule?
Answer: Conforms^1

Question: And the appearance ([5]; 5% Dextrose, pH 3.2, 2.4 mg/mL, 6 hours)?
Answer: Conforms^1

Question: What about the appearance ([5]; 5% Dextrose, pH 3.2, 2.4 mg/mL, 24 hours) of the same molecule?
Answer: Precipitate

Question: And the pH ([5]; 5% Mannitol, pH 4.5, 0.6 mg/mL)?
Answer: 8.6

Question: And the appearance ([5]; 5% Mannitol, pH 4.5, 0.6 mg/mL, 0 hours)?
Answer: Conforms^1

Question: What about the appearance ([5]; 5% Mannitol, pH 4.5, 0.6 mg/mL, 6 hours) of the same molecule?
Answer: Precipitate

Question: And the appearance ([5]; 5% Mannitol, pH 4.5, 0.6 mg/mL, 24 hours)?
Answer: Precipitate

Question: What about the pH ([5]; 5% Mannitol, pH 4.5, 2.4 mg/mL) of the same molecule?
Answer: 9.8

Question: And the appearance ([5]; 5% Mannitol, pH 4.5, 2.4 mg/mL, 0 hours)?
Answer: Conforms^1

Question: What about the appearance ([5]; 5% Mannitol, pH 4.5, 2.4 mg/mL, 6 hours) of the same molecule?
Answer: Conforms^1

Question: And the appearance ([5]; 5% Mannitol, pH 4.5, 2.4 mg/mL, 24 hours)?
Answer: Conforms^1

Question: And the total impurities ([6]; 2-hour storage in mixing containers and total of 6 hours simulated hold and infusion (5 hours for 15 mg dose))?
Answer: within the acceptable ranges

Question: And the HPLC assay values ([6]; 3, 6 and 12 mg/mL, samples collected during the study)?
Answer: did not show any trends and were within expected ranges

Question: And the “appearance of test samples” value ([6]; 3, 6 and 12 mg/mL, up to 6 hours)?
Answer: clear solutions essentially free of particles

Question: What about the in-use stability profile ([6]; concentration range of 3-12 mg/mL) of the same molecule?
Answer: acceptable stability profile
